Measurements as given in patent US20070010671A1, “Novel quinazoline derivatives and methods of treatment related to the use thereof” (priority 2003, published 2007).

Biological target: MCH receptor (Homo sapiens, UniProt Q99705)
Test: High throughput functional screening FLIPR/FDSS6000: inhibition of MCH-evoked intracellular Ca2+ changes
Format: cell-based
Conditions: class by percent of control at 10^-7 M or IC50
Procedure, shortened: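 Antagonism was measured as inhibition of calcium responses to 50 nM MCH, monitored 290 s at ex 488/em 530 nm on FLIPR or FDSS6000. Beforehand, cells bearing a constitutively active MCH receptor received Fluo4-AM (4 μM, 1 h, 37 °C) with probenecid, and test compound for 3 min.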

| Compound | class |
| --- | --- |
| CC(C)c1cccc(C(C)C)c1NC(=S)N[C@H]1CC[C@@H](Nc2nc(N(C)C)c3ccccc3n2)CC1 [compound 251] | 2 (Class 2: The value of percent of control at 10^−7 M was from 40% to 60% or the value of IC50 was from 50 nM to 200 nM.) |
| CC(C)c1cc(Br)c(NC(=O)N[C@H]2CC[C@@H](Nc3nc(N(C)C)c4ccccc4n3)CC2)c(Br)c1 [compound 339, N-(2,6-dibromo-4-isopropylphenyl)-N′-(cis-4-{[4-(dimethylamino)quinazolin-2-yl]amino}cyclohexyl)urea] | 1 (Class 1: The value of percent of control at 10^−7 M was less than 40% or the value of IC50 was less than 50 nM.) |
| Cc1cccc(C(C)C)c1NC(=S)N[C@H]1CC[C@@H](Nc2nc(N(C)C)c3ccccc3n2)CC1 [compound 366, N-(cis-4-{[4-(dimethylamino)quinazolin-2-yl]amino}cyclohexyl)-N′-(2-isopropyl-6-methylphenyl)thiourea] | 1 (Class 1: The value of percent of control at 10^−7 M was less than 40% or the value of IC50 was less than 50 nM.) |
| CCCCc1ccc(NC(=O)NC[C@H]2CC[C@@H](Nc3nc(N(C)C)c4ccccc4n3)CC2)cc1 [compound 561] | 3 (Class 3: The value of percent of control at 10^−7 M was more than 60% or the value of IC50 was more than 200 nM.) |
| CSc1ccc(NC(=S)NC[C@H]2CC[C@@H](Nc3nc(N(C)C)c4ccccc4n3)CC2)cc1 [compound 606] | 3 (Class 3: The value of percent of control at 10^−7 M was more than 60% or the value of IC50 was more than 200 nM.) |
| Cc1cc(NC(=O)NC[C@H]2CC[C@@H](Nc3nc(N(C)C)c4ccccc4n3)CC2)c(C(F)(F)F)o1 [compound 767, N-[(cis-4-{[4-(dimethylamino)quinazolin-2-yl]amino}cyclohexyl)methyl]-N′-[5-methyl-2-(trifluoromethyl)-3-furyl]urea] | 1 (Class 1: The value of percent of control at 10^−7 M was less than 40% or the value of IC50 was less than 50 nM.) |
| COC(=O)c1scc(C)c1NC(=S)N[C@H]1CC[C@@H](Nc2nc(N(C)C)c3ccccc3n2)CC1 [compound 381] | 1 (Class 1: The value of percent of control at 10^−7 M was less than 40% or the value of IC50 was less than 50 nM.) |
| CN(C)c1nc(N[C@H]2CC[C@@H](CNC(=O)Nc3ccc(Cl)cc3C(F)(F)F)CC2)nc2ccccc12 [compound 545, N-[4-chloro-2-(trifluoromethyl)phenyl]-N′-[(cis-4-{[4-(dimethylamino)quinazolin-2-yl]amino}cyclohexyl)methyl]urea] | 1 (Class 1: The value of percent of control at 10^−7 M was less than 40% or the value of IC50 was less than 50 nM.) |
| N-(2,5-dimethylphenyl)-N′-[(cis-4-{[4-(dimethylamino)quinazolin-2-yl]amino}cyclohexyl)methyl]urea [compound 480] | 2 (Class 2: The value of percent of control at 10^−7 M was from 40% to 60% or the value of IC50 was from 50 nM to 200 nM.) |
| CN(C)c1nc(N[C@H]2CC[C@@H](NC(=S)NC(c3ccccc3)c3ccccc3)CC2)nc2ccccc12 [compound 284, N-(cis-4-{[4-(dimethylamino)quinazolin-2-yl]amino}cyclohexyl)-N′-(diphenylmethyl)thiourea] | 2 (Class 2: The value of percent of control at 10^−7 M was from 40% to 60% or the value of IC50 was from 50 nM to 200 nM.) |
| CCCCc1ccc(NC(=O)NC[C@H]2CC[C@@H](Nc3nc(N(C)C)c4ccccc4n3)CC2)c(C)c1 [compound 766] | 3 (Class 3: The value of percent of control at 10^−7 M was more than 60% or the value of IC50 was more than 200 nM.) |
| CN(C)c1nc(N[C@H]2CC[C@@H](CNC(=O)Nc3ccc(C(C)(C)C)cc3)CC2)nc2ccccc12 [compound 765] | 3 (Class 3: The value of percent of control at 10^−7 M was more than 60% or the value of IC50 was more than 200 nM.) |
| CSc1ccc(NC(=O)NC[C@H]2CC[C@@H](Nc3nc(N(C)C)c4ccccc4n3)CC2)cc1 [compound 448, N-[(cis-4-{[4-(dimethylamino)quinazolin-2-yl]amino}cyclohexyl)methyl]-N′-[4-(methylthio)phenyl]urea] | 1 (Class 1: The value of percent of control at 10^−7 M was less than 40% or the value of IC50 was less than 50 nM.) |
| CN(C)c1nc(N[C@H]2CC[C@@H](CNC(=S)NC(C)(C)CC(C)(C)C)CC2)nc2ccccc12 [compound 614] | 3 (Class 3: The value of percent of control at 10^−7 M was more than 60% or the value of IC50 was more than 200 nM.) |
| CN(C)c1nc(N[C@H]2CC[C@@H](NC(=S)Nc3ccc4c(c3)OCO4)CC2)nc2ccccc12 [compound 370, N-1,3-benzodioxol-5-yl-N′-(cis-4-{[4-(dimethylamino)quinazolin-2-yl]amino}cyclohexyl)thiourea] | 1 (Class 1: The value of percent of control at 10^−7 M was less than 40% or the value of IC50 was less than 50 nM.) |
| CN(C)c1nc(N[C@H]2CC[C@@H](CNC(=S)Nc3cc(C(F)(F)F)ccc3Cl)CC2)nc2ccccc12 [compound 677] | 3 (Class 3: The value of percent of control at 10^−7 M was more than 60% or the value of IC50 was more than 200 nM.) |

Same assay, conditions: class by percent of control at 10^-7 M or by IC50; read-out: class

| IC50 [nM] | Compound |
| --- | --- |
| 50 to 200 | COc1cc(NC(=O)N[C@H]2CC[C@@H](Nc3nc(N(C)C)c4ccccc4n3)CC2)cc(OC)c1 [compound 126] |
| 50 to 200 | COc1ccccc1NC(=O)N[C@H]1CC[C@@H](Nc2nc(N(C)C)c3ccccc3n2)CC1 [compound 45, N-(cis-4-{[4-(dimethylamino)quinazolin-2-yl]amino}cyclohexyl)-N′-(2-methoxyphenyl)urea] |
| 50 to 200 | CCc1cccc(NC(=O)N[C@H]2CC[C@@H](Nc3nc(N(C)C)c4ccccc4n3)CC2)c1 [compound 132, N-(cis-4-{[4-(dimethylamino)quinazolin-2-yl]amino}cyclohexyl)-N′-(3-ethylphenyl)urea] |
| > 200 | CN(C)c1nc(N[C@H]2CC[C@@H](NC(=O)Nc3ccc(-c4ccccc4)cc3)CC2)nc2ccccc12 [compound 833] |
| > 200 | CN(C)c1nc(N[C@H]2CC[C@@H](NC(=O)Nc3ccccc3F)CC2)nc2ccccc12 [compound 38] |
| < 50 | COc1ccc(NC(=O)N[C@H]2CC[C@@H](Nc3nc(N(C)C)c4ccccc4n3)CC2)cc1Cl [compound 131, N-(3-chloro-4-methoxyphenyl)-N′-(cis-4-{[4-(dimethylamino)quinazolin-2-yl]amino}cyclohexyl)urea] |
| 50 to 200 | CCc1ccc(NC(=O)N[C@H]2CC[C@@H](Nc3nc(N(C)C)c4ccccc4n3)CC2)cc1 [compound 31, N-(cis-4-{[4-(dimethylamino)quinazolin-2-yl]amino}cyclohexyl)-N′-(4-ethylphenyl)urea] |
| > 200 | CC(=O)c1ccc(NC(=S)N[C@H]2CC[C@@H](Nc3nc(N(C)C)c4ccccc4n3)CC2)cc1 [compound 154] |
| < 50 | CN(C)c1nc(N[C@H]2CC[C@@H](NC(=O)Nc3ccccc3-c3ccccc3)CC2)nc2ccccc12 [compound 11, N-biphenyl-2-yl-N′-(cis-4-{[4-(dimethylamino)quinazolin-2-yl]amino}cyclohexyl)urea] |

Same assay, conditions: class by percent of control at 10^−7 M or by IC50; read-out: class

| Compound | IC50 [nM] |
| --- | --- |
| COc1cccc(Oc2ccc(C(=O)N[C@H]3CC[C@@H](Nc4nc(N(C)C)c5ccccc5n4)CC3)cn2)c1 [Example 1056, N-(cis-4-{[4-(dimethylamino)quinazolin-2-yl]amino}cyclohexyl)-6-(3-methoxyphenoxy)nicotinamide] | < 50 |
| CN(C)c1nc(N[C@H]2CC[C@@H](NC(=O)COc3ccc(F)cc3)CC2)nc2ccccc12 [Example 1078, N-(cis-4-{[4-(dimethylamino)quinazolin-2-yl]amino}cyclohexyl)-2-(4-fluorophenoxy)acetamide] | < 50 |
| CN(C)c1nc(N[C@H]2CC[C@@H](NC(=O)Nc3cccc(Cl)c3Cl)CC2)nc2ccccc12 [Example 1013, N-(2,3-dichlorophenyl)-N′-(cis-4-{[4-(dimethylamino)quinazolin-2-yl]amino}cyclohexyl)urea] | > 200 |
| CN(C)c1nc(N[C@H]2CC[C@@H](NC(=O)CNc3ccccc3)CC2)nc2ccccc12 [Example 1085, N-(cis-4-{[4-(dimethylamino)quinazolin-2-yl]amino}cyclohexyl)-N2-phenylglycinamide] | < 50 |
| COc1cccc(NC(=O)NC[C@H]2CC[C@@H](Nc3nc(N(C)C)c4ccccc4n3)CC2)c1 [Example 1017, N-[(cis-4-{[4-(dimethylamino)quinazolin-2-yl]amino}cyclohexyl)methyl]-N′-(3-methoxyphenyl)urea] | 50 to 200 |
| CN(C)c1nc(N[C@H]2CC[C@@H](CNC(=O)c3cc(F)ccc3F)C2)nc2ccccc12 [Example 1129, N-[((1R,3S)-3-{[4-(dimethylamino)quinazolin-2-yl]amino}cyclopentyl)methyl]-2,5-difluorobenzamide] | 50 to 200 |

Results, then the compound that gave them:

| IC50 [nM] | Compound |
| --- | --- |
| < 50 | Cc1ccc(C(=O)N[C@H]2CC[C@@H](Nc3nc(N(C)C)c4cc(F)c(F)cc4n3)CC2)cc1 [Example 1206, N-(cis-4-{[4-(dimethylamino)-6,7-difluoroquinazolin-2-yl]amino}cyclohexyl)-4-methylbenzamide] |
| > 200 | CN(C)c1nc(NC[C@@H]2CC[C@H](NC(=O)c3ccc(F)cc3F)C2)nc2ccccc12 [Example 1133, N-[(1S,3R)-3-({[4-(dimethylamino)quinazolin-2-yl]amino}methyl)cyclopentyl]-2,4-difluorobenzamide] |
| < 50 | CN(C)c1nc(N[C@H]2CC[C@@H](C(=O)NCc3cc(C(F)(F)F)ccc3Cl)CC2)nc2ccccc12 [Example 1183, cis-N-[2-chloro-5-(trifluoromethyl)benzyl]-4-{[4-(dimethylamino)quinazolin-2-yl]amino}cyclohexanecarboxamide] |
| > 200 | CN(C)c1nc(N[C@H]2CC[C@@H](C(=O)Nc3nc(C(C)(C)C)c(Br)s3)CC2)nc2ccccc12 [Example 1199, cis-N-(5-bromo-4-tert-butyl-1,3-thiazol-2-yl)-4-{[4(dimethylamino)quinazolin-2-yl]amino}cyclohexanecarboxamide] |
